# Data published in PubChem BioAssay AID1963850 (Molecular Pharmacology Branch, DTP, NCI, 2024).
# System: 192522-019-R-J2-PDC complex tumor spheroid viability
# Assay: Anticancer human tumor 192522-019-R-J2-PDC patient-derived colon adenocarcinoma cell line growth inhibition [POLQ]
# Settings: for IC50: curve of first compound; for viability, T/C: stronger effect = lower value
# Summary of the method: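 Complex spheroid viability model combining PDC tumour cells with endothelial (HUVEC) and MSC stromal cells. Novobiocin, ART-558 or RP6685 were tested singly and in combination with standard and investigational anticancer drugs. Each was titrated in half-log steps from near clinical Cmax, or from 10 microM where Cmax was unknown.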
# [1] = second compound 0.0316 µM, first compound 0.0316 µM
# [2] = second compound 0.0316 µM, first compound 0.1 µM
# [3] = second compound 0.0316 µM, first compound 0.316 µM
# [4] = second compound 0.0316 µM, first compound 1 µM
# [5] = second compound 0.0316 µM, first compound 3.16 µM
# [6] = second compound 0.0316 µM, first compound 10 µM
# [7] = second compound 0.1 µM, first compound 0.0316 µM
# [8] = second compound 0.1 µM, first compound 0.1 µM
# [9] = second compound 0.1 µM, first compound 0.316 µM
# [10] = second compound 0.1 µM, first compound 1 µM
# [11] = second compound 0.1 µM, first compound 3.16 µM
# [12] = second compound 0.1 µM, first compound 10 µM
# [13] = second compound 0.316 µM, first compound 0.0316 µM
# [14] = second compound 0.316 µM, first compound 0.1 µM
# [15] = second compound 0.316 µM, first compound 0.316 µM
# [16] = second compound 0.316 µM, first compound 1 µM
# [17] = second compound 0.316 µM, first compound 3.16 µM
# [18] = second compound 0.316 µM, first compound 10 µM
# [19] = second compound 1 µM, first compound 0.0316 µM
# [20] = second compound 1 µM, first compound 0.1 µM
# [21] = second compound 1 µM, first compound 0.316 µM
# [22] = second compound 1 µM, first compound 1 µM
# [23] = second compound 1 µM, first compound 3.16 µM
# [24] = second compound 1 µM, first compound 10 µM
# [25] = second compound 3.16 µM, first compound 0.0316 µM
# [26] = second compound 3.16 µM, first compound 0.1 µM
# [27] = second compound 3.16 µM, first compound 0.316 µM
# [28] = second compound 3.16 µM, first compound 1 µM
# [29] = second compound 3.16 µM, first compound 3.16 µM
# [30] = second compound 3.16 µM, first compound 10 µM
# [31] = second compound 10 µM, first compound 0.0316 µM
# [32] = second compound 10 µM, first compound 0.1 µM
# [33] = second compound 10 µM, first compound 0.316 µM
# [34] = second compound 10 µM, first compound 1 µM
# [35] = second compound 10 µM, first compound 3.16 µM
# [36] = second compound 10 µM, first compound 10 µM
# 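Note: spheroids exposed to drugs for seven days before reading.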
# 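Throughout, for viability, T/C: 100% = DMSO vehicle control viability in luminescence.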
compound,measurement,setting,value
CCc1cc2c(N3CCc4c(cc(Cn5ccnc5)cc4-c4cn(C)nc4C(F)(F)F)C3=O)ccnc2c(OC)n1 + COC1C(OC(N)=O)C(O)C(Oc2ccc3c(O)c(NC(=O)c4ccc(O)c(CC=C(C)C)c4)c(=O)oc3c2C)OC1(C)C,IC50,second compound 0.0316 µM,> 10 µM
same,IC50,second compound 0.1 µM,> 10 µM
same,IC50,second compound 0.316 µM,> 10 µM
same,IC50,second compound 1 µM,> 10 µM
same,IC50,second compound 3.16 µM,> 10 µM
same,IC50,second compound 10 µM,> 10 µM
same,"viability, T/C",[1],98.8%
same,"viability, T/C",[2],89.9%
same,"viability, T/C",[3],86.5%
same,"viability, T/C",[4],89.3%
same,"viability, T/C",[5],88.8%
same,"viability, T/C",[6],63%
same,"viability, T/C",[7],101%
same,"viability, T/C",[8],88.9%
same,"viability, T/C",[9],93.7%
same,"viability, T/C",[10],84.7%
same,"viability, T/C",[11],78.5%
same,"viability, T/C",[12],67.7%
same,"viability, T/C",[13],101%
same,"viability, T/C",[14],93.7%
same,"viability, T/C",[15],89.9%
same,"viability, T/C",[16],90.9%
same,"viability, T/C",[17],68.3%
same,"viability, T/C",[18],71.2%
same,"viability, T/C",[19],101%
same,"viability, T/C",[20],94%
same,"viability, T/C",[21],85.4%
same,"viability, T/C",[22],96.6%
same,"viability, T/C",[23],76.7%
same,"viability, T/C",[24],67.8%
same,"viability, T/C",[25],106%
same,"viability, T/C",[26],102%
same,"viability, T/C",[27],92%
same,"viability, T/C",[28],91.9%
same,"viability, T/C",[29],90.5%
same,"viability, T/C",[30],68.3%
same,"viability, T/C",[31],97.5%
same,"viability, T/C",[32],88.7%
same,"viability, T/C",[33],95.6%
same,"viability, T/C",[34],92.1%
same,"viability, T/C",[35],87.3%
same,"viability, T/C",[36],74.7%
COc1cc2cc(C(=O)CCC(=O)O)sc2cc1OC + COC1C(OC(N)=O)C(O)C(Oc2ccc3c(O)c(NC(=O)c4ccc(O)c(CC=C(C)C)c4)c(=O)oc3c2C)OC1(C)C,IC50,second compound 0.0316 µM,> 10 µM
same,IC50,second compound 0.1 µM,> 10 µM
same,IC50,second compound 0.316 µM,> 10 µM
same,IC50,second compound 1 µM,> 10 µM
same,IC50,second compound 3.16 µM,> 10 µM
same,IC50,second compound 10 µM,> 10 µM
same,"viability, T/C",[1],101%
same,"viability, T/C",[2],94.3%
same,"viability, T/C",[3],97.7%
same,"viability, T/C",[4],101%
same,"viability, T/C",[5],102%
same,"viability, T/C",[6],91.9%
same,"viability, T/C",[7],110%
same,"viability, T/C",[8],98%
same,"viability, T/C",[9],96.9%
same,"viability, T/C",[10],97%
same,"viability, T/C",[11],94.9%
same,"viability, T/C",[12],106%
same,"viability, T/C",[13],105%
same,"viability, T/C",[14],88.7%
same,"viability, T/C",[15],98.6%
same,"viability, T/C",[16],105%
same,"viability, T/C",[17],96.9%
same,"viability, T/C",[18],105%
same,"viability, T/C",[19],105%
same,"viability, T/C",[20],97.7%
same,"viability, T/C",[21],104%
same,"viability, T/C",[22],111%
same,"viability, T/C",[23],105%
same,"viability, T/C",[24],101%
same,"viability, T/C",[25],103%
same,"viability, T/C",[26],103%
same,"viability, T/C",[27],107%
same,"viability, T/C",[28],105%
same,"viability, T/C",[29],114%
same,"viability, T/C",[30],96.9%
same,"viability, T/C",[31],102%
same,"viability, T/C",[32],88.7%
same,"viability, T/C",[33],109%
same,"viability, T/C",[34],109%
same,"viability, T/C",[35],112%
same,"viability, T/C",[36],101%
COc1ccc([C@@H](O)c2cc(-c3ncnc4cc(N5CCOCC5)ccc34)c(F)cc2Cl)nn1 + COC1C(OC(N)=O)C(O)C(Oc2ccc3c(O)c(NC(=O)c4ccc(O)c(CC=C(C)C)c4)c(=O)oc3c2C)OC1(C)C,IC50,second compound 0.0316 µM,> 10 µM
same,IC50,second compound 0.1 µM,> 10 µM
same,IC50,second compound 0.316 µM,> 10 µM
same,IC50,second compound 1 µM,> 10 µM
same,IC50,second compound 3.16 µM,> 10 µM
same,IC50,second compound 10 µM,> 10 µM
same,"viability, T/C",[1],105%
same,"viability, T/C",[2],87.2%
same,"viability, T/C",[3],120%
same,"viability, T/C",[4],97.7%
same,"viability, T/C",[5],99.8%
same,"viability, T/C",[6],63.1%
same,"viability, T/C",[7],109%
same,"viability, T/C",[8],97.6%
same,"viability, T/C",[9],106%
same,"viability, T/C",[10],95.5%
same,"viability, T/C",[11],88.1%
same,"viability, T/C",[12],62.4%
same,"viability, T/C",[13],117%
same,"viability, T/C",[14],93.2%
same,"viability, T/C",[15],103%
same,"viability, T/C",[16],107%
same,"viability, T/C",[17],97.8%
same,"viability, T/C",[18],68.5%
same,"viability, T/C",[19],109%
same,"viability, T/C",[20],106%
same,"viability, T/C",[21],104%
same,"viability, T/C",[22],92.9%
same,"viability, T/C",[23],86.8%
same,"viability, T/C",[24],63.1%
same,"viability, T/C",[25],96%
same,"viability, T/C",[26],99.2%
same,"viability, T/C",[27],117%
same,"viability, T/C",[28],84.9%
same,"viability, T/C",[29],98.1%
same,"viability, T/C",[30],72.9%
same,"viability, T/C",[31],103%
same,"viability, T/C",[32],104%
same,"viability, T/C",[33],114%
same,"viability, T/C",[34],108%
same,"viability, T/C",[35],99.2%
same,"viability, T/C",[36],66.9%
O=C(Nc1ccc(O)c(NS(=O)(=O)c2ccc(F)cc2)c1)c1ccc(-c2ccccc2)cc1 + COC1C(OC(N)=O)C(O)C(Oc2ccc3c(O)c(NC(=O)c4ccc(O)c(CC=C(C)C)c4)c(=O)oc3c2C)OC1(C)C,IC50,second compound 0.0316 µM,> 10 µM
same,IC50,second compound 0.1 µM,> 10 µM
same,IC50,second compound 0.316 µM,> 10 µM
same,IC50,second compound 1 µM,> 10 µM
same,IC50,second compound 3.16 µM,> 10 µM
same,IC50,second compound 10 µM,> 10 µM
same,"viability, T/C",[1],109%
same,"viability, T/C",[2],97.3%
same,"viability, T/C",[3],95.8%
same,"viability, T/C",[4],92.1%
same,"viability, T/C",[5],93%
same,"viability, T/C",[6],101%
same,"viability, T/C",[7],105%
same,"viability, T/C",[8],88.9%
same,"viability, T/C",[9],97.5%
same,"viability, T/C",[10],102%
same,"viability, T/C",[11],95.5%
same,"viability, T/C",[12],104%
same,"viability, T/C",[13],103%
same,"viability, T/C",[14],89.6%
same,"viability, T/C",[15],98.3%
same,"viability, T/C",[16],93.5%
same,"viability, T/C",[17],94.7%
same,"viability, T/C",[18],96.6%
same,"viability, T/C",[19],95.7%
same,"viability, T/C",[20],93.3%
same,"viability, T/C",[21],111%
same,"viability, T/C",[22],105%
same,"viability, T/C",[23],95.5%
same,"viability, T/C",[24],94.3%
same,"viability, T/C",[25],104%
same,"viability, T/C",[26],103%
same,"viability, T/C",[27],95.7%
same,"viability, T/C",[28],105%
same,"viability, T/C",[29],108%
same,"viability, T/C",[30],102%
same,"viability, T/C",[31],95.9%
same,"viability, T/C",[32],98.2%
same,"viability, T/C",[33],120%
same,"viability, T/C",[34],97.6%
same,"viability, T/C",[35],113%
same,"viability, T/C",[36],105%
